Experimental data as given in patent US20200390755A1, “COMPOUND FOR TREATING NERVOUS SYSTEM DISEASES AND USE THEREOF” (SHAANXI MICOT TECHNOLOGY CO., LTD., priority 2018, published 2020).
Marks after values point to notes of the source that are not given here.

Tests used:
N171-82Q HD mice [1] = experiment: Slope balance beam experiment, HD mice; assay type: in vivo, mouse; settings: 5 mg/kg/d intragastric
Description: (§1) 7-week-old N171-82Q HD male mice were paired with female B6C3F1/J hybrid mice to obtain newborn mice. From 21 days of age, male mice were housed in separate cages. 0.5 cm of mouse tail tissue was removed to extract DNA to determine the genotype of the mouse, such that N171-82Q HD mice and WT mice needed for the experiment were obtained. The mice were randomly divided into WT Vehicle group (normal mice), WT test compound group (administration group of normal mice, 5 mg/kg/d, n=10), HD Vehicle group (blank group of HD mice, n=15), HD test compound group (administration groups 1-5 of HD mice, 5 mg/kg/d, n=10). The test compound was suspended in 1% CMC-Na solution and administered by intragastric administration until the end of the study. The weights of the mice were measured every week. Behavioral tests were performed at 12 weeks, 18 weeks, and 24 weeks of age to investigate motor function. At 20 weeks, 3 samples of tissue from each group were used for western blotting and immunohistochemistry. At 24 weeks, MRI scans were performed. At the end of the study, the effect of the test compound on the mortality of mice was evaluated.
The software Sigmaplot 13.0 was used for statistical analysis of the data, and the data of each group was expressed as mean standard error (x±SEM). Behavioral test results were analyzed using two-way (genotype and processing factor) ANOVA and post-ho tests, the comparison and statistics of weight data were performed using two-way (genotype and age) ANOVA of repeated measures, and mortality was counted using Kaplan-Meier method. Other measurement data were analyzed by one-way ANOVA. P<0.05 was considered statistically significant.
The motor function of mice was evaluated by the rotarod experiment and three types of balance beam experiments. The shorter the time for mouse to cross the balance beam, and the longer the time to drop, the stronger the coordination ability of the mouse.
A square balance beam with a length of 100 cm and a width of 11 mm was placed at a 45-degree angle to the horizontal ground. A black box (12×12×12 cm) was placed at the end of the balance beam, and the starting platform was illuminated by bright lights. Spacers were placed under the balance beam to provide cushioning in case that the animal falls off the beam. One hour before the test, the mice were trained to cross the beam three times at one-eighth, one-quarter, and full-length distances from the black box, respectively. If the mice stopped walking during training, they were gently pressed with long forceps on the tail to encourage movement. After the training experiment, the mice rested for at least one hour in an undisturbed environment. In the experiment, the maximum time for each mouse to cross the balance beam was set to 60 seconds. If the time for crossing the beams was greater than 60 seconds, it was recorded as 60 seconds.

N171-82Q HD mice [2] = experiment: In vivo MRI scan and brain volume measurement, HD mice; set-up: species or system mouse; settings: 5 mg/kg/d, administered until 24 weeks, n = 4
Description: as §1
The WT Vehicle group, WT test compound group, HD Vehicle group and HD test compound group were administered until 24 weeks, and 4 mice in each group were taken for in vivo MRI scanning and brain volume measurement. A 9.4 T MRI scanner equipped with three-axis gradient and animal imaging probes was used. The mice were anesthetized with 1% isoflurane. The breath of mice was monitored, and constant temperature was maintained throughout the scan. Three-dimensional T2 weighted fast spin echo sequence technology was used to obtain images. The imaging resolution and contrast of this technology were sufficient to automatically describe the volume of the mouse brain and substructures. The parameters were as follows: echo time (TE)/repetition time (TR) ^1/440/700 ms, resolution ^1/40.1×0.1×0.1 mm, echo train length ^1/44, average number ^1/42 and flip angle ^1/4408. The instrument contained a powerful linux cluster that can encode and run large-scale deformation diffusion metric maps (LDDMM) to obtain high-intensity standardized images. These transformations encoded morphological differences between images and analyzed based on deformation morphological measurements (DBM) to detect regional changes in brain volume. The volume of the whole brain (Brain), […] was analyzed.
The MRI scanning technology was used to analyze the morphological differences between the experimental object and the template image, and the LDDMM method was used to calculate and analyze the brain tissue structure of the mouse. The statistical results of the brain volume, striatum volume, and neurocortex volume of the test compound Example 1 are shown in FIG. 3, in which FIG. 3A is the statistical results of the whole brain volume, and FIG. 3B is the statistical results of striatum volume, and FIG. 3C is the statistical results of neurocortex volume.

N171-82Q HD mice [3] = experiment: DARPP32 protein level in striatum by Western blotting, HD mice; assay type: in vivo, mouse; settings: 5 mg/kg/d until 25 weeks, WT Vehicle = 100, n = 3
Description: as §1
Dopamine and cAMP-regulated phosphoprotein (DARPP-32), with a molecular weight of 32 kDa, is a basic component of dopamine signaling cascade. A pathological feature of HD is the massive loss of MSNs which can express high level of DARPP32, in the striatum. Therefore, DARPP32 can be used as a marker of nerve damage and nerve dysfunction in the HD model. After the behavioral evaluation of the mice in each experimental group was completed and the administration continued until 25 weeks, 3 mice were taken from each group to separate hippocampal tissue, striatum, and neurocortex tissue. The total protein in the striatum tissue was extracted, and the protein level of DARPP 32 was detected by Western blotting experiment.
The striatum tissue block was lysed in 100 μL of lysis buffer (RIPA buffer 10 mL, protease inhibitor 100 μL, phosphatase inhibitor 100 μL) on ice for 30 min, and then pulverized with an ultrasonic cell pulverizer, and then centrifuged at 14000 rpm for 20 min at 4° C. The supernatant was transferred to a new 1.5 mL centrifuge tube. The protein was extracted, and the protein level of DARPP 32 was detected by Western blotting.

| Compound | Time for crossing the beams, slope balance beam (N171-82Q HD mice [1]; 12 w) | Time for crossing the beams, slope balance beam (N171-82Q HD mice [1]; 18 w) | Time for crossing the beams, slope balance beam (N171-82Q HD mice [1]; 24 w) | MRI volume, Neurocortex (N171-82Q HD mice [2]) | MRI volume, Striatum (N171-82Q HD mice [2]) | MRI volume, Whole brain (N171-82Q HD mice [2]) | Relative intensity of DARPP32 protein (N171-82Q HD mice [3]) |
| --- | --- | --- | --- | --- | --- | --- | --- |
| CC1(C)CCN(c2ccc(-c3cc(=O)c4ccc(O)c(O)c4o3)cc2)CC1 [Example 4, 2-(4-(4,4-dimethylpiperidin-1-yl)phenyl)-7,8-dihydroxy-4H-chromen-4-one] | 16.78 ± 5.98 s | 17.00 ± 5.65 s | 18.38 ± 5.10 s | 18.59 ± 0.899** mm^3 | 79.03 ± 1.834** mm^3 | 461.31 ± 3.451** mm^3 | 97.348 ± 3.438 |
| CC1CC(C)CN(c2ccc(-c3cc(=O)c4ccc(O)c(O)c4o3)cc2)C1 (centres unmarked) [Example 5, 2-(4-(3,5-dimethylpiperidin-1-yl)phenyl)-7,8-dihydroxy-4H-chromen-4-one] | 14.94 ± 6.59 s | 16.67 ± 5.77 s | 18.58 ± 7.34 s | 19.01 ± 0.557** mm^3 | 79.43 ± 0.898** mm^3 | 462.19 ± 2.178** mm^3 | 96.797 ± 3.018 |
| O=c1cc(-c2ccc(N3CCCCC3)cc2)oc2c(O)c(O)ccc12 [Example 1, 7,8-dihydroxy-2-(4-(piperidin-1-yl)phenyl)-4H-chromen-4-one] | 15.18 ± 3.95 s | 14.09 ± 3.18 s | 18.09 ± 6.02 s | 18.90 ± 0.341** mm^3 | 79.47 ± 1.079** mm^3 | 460.47 ± 2.145** mm^3 | 96.971 ± 3.607 |
| CN(C)C1CCN(c2ccc(-c3cc(=O)c4ccc(O)c(O)c4o3)cc2)CC1 [Example 3, 2-(4-(4-(dimethylamino)piperidin-1-yl)phenyl)-7,8-dihydroxy-4H-chromen-4-one] | 13.64 ± 6.90 s | 14.37 ± 5.81 s | 15.43 ± 4.58 s | 19.05 ± 0.997** mm^3 | 80.34 ± 1.238** mm^3 | 465.33 ± 9.218** mm^3 | 97.032 ± 3.887 |
| COc1ccc2c(=O)cc(-c3ccc(N4CCCCC4)cc3)oc2c1OC [Example 2, 7,8-dimethoxy-2-(4-(piperidin-1-yl)phenyl)-4H-chromen-4-one] | 17.88 ± 2.83 s | 17.13 ± 4.76 s | 19.00 ± 6.84 s | 18.68 ± 0.598** mm^3 | 79.10 ± 0.976** mm^3 | 449.97 ± 7.279** mm^3 | 96.113 ± 2.681 |
